From article PMC10004777 (Molecules, 2023)

Tests used:
[1] = system: MCF-7 breast cancer cells; test: Cell viability (MTT) assay, MCF-7; type: cell-based
Protocol: MCF-7 is a commonly used tumor cell line.
(§1) The cell lines present in this study were obtained from Procell Life Science & Technology Co. Ltd. MCF-7, HepG2 and SJSA-1 cells were cultured in DMEM medium (DMEM, Gibco) supplemented with 10% fetal bovine serum (FBS, Gibco), 1% penicillin-streptomycin (Hyclone) at 37℃ in a humid environment with 5% CO2. HK-2 cells were cultured in DMEM/F12 (1:1) medium and placed in incubators in the same environment.
(§2) Cell viability was determined by MTT assay. MCF-7, HepG2, SJSA-1 and HK-2 cells (6 × 10^3 cells /well) were seeded in 96-well plates with serum-free medium for 24 h. […] After 48 or 72 h, 10 μL MTT (5 mg/mL, Beyotime) was added and incubated at 37 °C for 4 h. Then 100 μL of lysate was added. After complete dissolution of the crystal, the absorbance was measured at 540 nm and expressed as the average percentage of absorbance between treated and control cells. The value for control cells was set at 100%. Cell survival rate was calculated as the ratio of the absorbance of the cells and negative control after minus the blank absorbance respectively.

[2] = system: osteosarcoma cell line SJSA-1; test: Cell viability (MTT) assay, SJSA-1; type: cell-based
Protocol: (§3) To investigate the selectivity of these derivatives towards different tumor cell lines, we also selected HepG2 and osteosarcoma cell line SJSA-1 cells to evaluate the anti-proliferation activity of the derivatives. […] Except for compounds A2 and A11, the effects of other compounds on SJSA-1 were not strong.
as §1, §2

[3] = system: HK-2 cells; test: Cell viability (MTT) assay, HK-2 normal cells (cytotoxicity); type: cell-based
Protocol: as §1, §2

[4] = system: HepG2 cells; test: Cell viability (MTT) assay, HepG2; type: cell-based
Protocol: as §3, §1, §2

| Compound | melting point [°C] | Viability of Cells (% of Control) ([1]; 25 µM) | Viability of Cells (% of Control) ([1]; 50 µM) | Viability of Cells (% of Control) ([1]; 100 µM) | Viability of Cells (% of Control) ([2]; 50 µM) | Viability of Cells (% of Control) ([2]; 100 µM) | Viability of Cells (% of Control) ([3]; 50 µM) | Viability of Cells (% of Control) ([3]; 100 µM) | Viability of Cells (% of Control) ([4]; 25 µM) | Viability of Cells (% of Control) ([4]; 50 µM) | anti-proliferation activity on MCF-7 compared with GAA ([1]; MCF-7, 48 h) | anti-proliferation activity on HepG2 (in words) ([4]; HepG2, 48 h) |
| --- | --- | --- | --- | --- | --- | --- | --- | --- | --- | --- | --- | --- |
| Cc1ccc(CNC(=O)[C@H](C)CC(=O)C[C@@H](C)[C@H]2C[C@H](O)[C@@]3(C)C4=C(C(=O)C[C@]23C)[C@@]2(C)CCC(=O)C(C)(C)[C@@H]2C[C@@H]4O)cc1 [Compound A5, (4-methylbenzyl)-(7β,15α,25R)-7,15-Dihydroxy-3,11,23-Trioxolanost-8-en-26-oic Amide] | 208.7 to 209 | 115.0 ± 2.9 % of Control | 107.4 ± 6.7 % of Control | 99.5 ± 1.0 % of Control | 75.0 ± 2.6 % of Control | 64.5 ± 1.2 % of Control | 110.4 ± 13.1 % of Control | 97.0 ± 8.8 % of Control | 78.5 ± 3.0 % of Control | 69.1 ± 1.9 % of Control | – | – |
| C[C@H](CC(=O)C[C@@H](C)[C@H]1C[C@H](O)[C@@]2(C)C3=C(C(=O)C[C@]12C)[C@@]1(C)CCC(=O)C(C)(C)[C@@H]1C[C@@H]3O)C(=O)NCc1cc(Cl)cc(Cl)c1 [Compound A8, (3,5-Dichlorobenzyl)-(7β,15α,25R)-7,15-Dihydroxy-3,11,23-Trioxolanost-8-en-26-oic Amide] | 182.6 to 183.8 | 63.3 ± 8.3 % of Control | – | 39.4 ± 5.8 % of Control | 92.4 ± 1.4 % of Control | 80.4 ± 4.7 % of Control | 107.8 ± 14.3 % of Control | 91.0 ± 2.4 % of Control | 54.2 ± 2.0 % of Control | 48.1 ± 1.5 % of Control | significant anti-proliferation activities | potent anti-proliferation activity |
| CCN1CCN(C(=O)[C@H](C)CC(=O)C[C@@H](C)[C@H]2C[C@H](O)[C@@]3(C)C4=C(C(=O)C[C@]23C)[C@@]2(C)CCC(=O)C(C)(C)[C@@H]2C[C@@H]4O)CC1 [Compound A14, (4-Ethylpiperazin-1-yl)-(7β,15α,25R)-7,15-Dihydroxy-3,11,23-Trioxolanost-8-en-26-oic Amide] | 198.5 to 199.4 | 106.2 ± 4.7 % of Control | 102.2 ± 5.9 % of Control | 96.2 ± 5.0 % of Control | 70.4 ± 1.6 % of Control | 47.3 ± 2.1 % of Control | – | – | 95.6 ± 1.9 % of Control | 99.3 ± 0.2 % of Control | – | – |
| Cc1ccc(NC(=O)[C@H](C)CC(=O)C[C@@H](C)[C@H]2C[C@H](O)[C@@]3(C)C4=C(C(=O)C[C@]23C)[C@@]2(C)CCC(=O)C(C)(C)[C@@H]2C[C@@H]4O)cc1 [Compound A3, (4-Methylphenyl)-(7β,15α,25R)-7,15-Dihydroxy-3,11,23-Trioxolanost-8-en-26-oic Amide] | 174.3 to 175.5 | 110.9 ± 2.2 % of Control | 114.3 ± 1.2 % of Control | 78.7 ± 3.9 % of Control | 85.3 ± 1.1 % of Control | 83.3 ± 3.0 % of Control | – | – | 90.1 ± 1.1 % of Control | 76.3 ± 1.1 % of Control | – | – |
| C[C@H](CC(=O)C[C@@H](C)[C@H]1C[C@H](O)[C@@]2(C)C3=C(C(=O)C[C@]12C)[C@@]1(C)CCC(=O)C(C)(C)[C@@H]1C[C@@H]3O)C(=O)N1CCN(C)CC1 [Compound A13, (4-Methylpiperazin-1-yl)-(7β,15α,25R)-7,15-Dihydroxy-3,11,23-Trioxolanost-8-en-26-oic Amide] | 173.2 to 174.9 | 113.6 ± 2.1 % of Control | 107.3 ± 9.1 % of Control | 102.7 ± 3.5 % of Control | 87.6 ± 3.8 % of Control | 77.6 ± 3.5 % of Control | – | – | 104.4 ± 2.0 % of Control | 99.3 ± 4.9 % of Control | – | – |
